Results as given in publication PMC13231895 (Antimicrobial Agents and Chemotherapy, 2026).

Experiment: Plasma pharmacokinetics after single […] IV infusion of nacubactam 2 g coadministered with meropenem 2 g (Phase 1)
Assay type: in vivo, healthy adult male and female volunteers
Conditions: n = 21, geometric mean (CV%), 2 g nacubactam + 2 g meropenem IV
Description: The study consisted of a screening visit (Days −28 to −1), a treatment and sampling period (Day 1), and a safety follow-up visit (Days 7–14). […] The two drugs were administered concurrently as separate solutions through two separate lines via a large bore, double-lumen catheter, under the supervision of study personnel. […] While all participants received the same study drug treatment and followed the same blood sampling scheme, each individual was assigned to one of five possible timepoints (2, 3, 4, 6, or 8 h after the start of study drug administration) for the BAL procedure. Equal numbers of participants were assigned to each timepoint, and assignment of individual participants was at the discretion of the investigator. […] An additional plasma sample was taken at the same time as part of the BAL procedure to measure urea. The plasma samples were stored at −80°C pending analysis. […] PK parameters were estimated by non-compartmental analysis using Phoenix WinNonlin (version 6.4; Certara USA, Inc.) by Covance.

AUC0–8h: 275 (19) µg·h/mL
SMILES: NCCONC(=O)[C@@H]1CC[C@@H]2CN1C(=O)N2OS(=O)(=O)O [Nacubactam]
